Data on five molecules can be found in patent publication US10149890B2 (priority 2010, dated 2018).

Several values for one entry are separate records, joined by “and”; a condition that tells them apart may be missing. Equal values may be shown once.

For experiment [1], the system named is influenza virus strain A/FPV/Rostock/34. The arrangement: species or system chickens. As to conditions: in vivo.
The subject of experiment [2] is human immunodeficiency virus HIV-1 (LAI). Format: cell-based. Particulars: 0.01 mg/ml.
Experiment [3] has the same test system. The experiment is classed as cell-based.
Experiment [4] relates to clinical isolates of MRSA and MSSA, Staphylococcus aureus ATCC 43300 and ATCC 29213. The experiment is classed as cell-based. As to conditions: for MIC of the antibiotic alone: before combination with FS-1.

Take `CC(N)C12CC3CC(CC(C3)C1)C2` (stereo not shown) [Rimantadine]: in experiment [1], the “Number of chickens that died” value was 10 and 8; the “Number of survived chickens” value was 4 and 6; the Survival % was 28.6 ± 12.53% and 42.9 ± 13.73%.
As for `Cc1cn([C@H]2C[C@H](N=[N+]=[N-])[C@@H](CO)O2)c(=O)[nH]c1=O` [azidothymidine], in experiment [2], the “Decrease of reverse transcriptase content compared with negative control” value was found to be 5 times and the “Extinction factor (reverse transcriptase)” value is given as 0.5724 ± 0.005464. Further, the “Extinction factor (p24)” value in experiment [3] (0.01 mg/ml) was 0.0446 ± 0.003187. Besides, the “Decrease of p24 protein compared to placebo” value in experiment [3] (FS-1 0.188 and 0.094 mg/ml, azidothymidine 0.01 mg/ml) was 60 times.
Regarding `Cn1nnnc1SCC1=C(C(=O)O)N2C(=O)[C@@H](NC(=O)[C@H](O)c3ccccc3)[C@H]2SC1` [cefamandole], in experiment [4], the “MIC of the antibiotic in combination with FS-1” value came out at 8 µg/mL and the “MIC of the antibiotic alone” value was determined as 64 µg/mL.
The like results for `CCC[C@@H]1C[C@@H](C(=O)N[C@@H]([C@H]2O[C@H](SC)[C@H](O)[C@@H](O)[C@H]2O)[C@@H](C)O)N(C)C1` [lincomycin] were, in that order, 8 µg/mL and 64 µg/mL.
As to `Cc1onc(-c2ccccc2)c1C(=O)N[C@@H]1C(=O)N2[C@@H]1SC(C)(C)[C@@H]2C(=O)O` [oxacillin], in experiment [4], the “MIC of the antibiotic in combination with FS-1” value is 64 µg/mL and the “MIC of the antibiotic alone” value was 256 µg/mL.
